The values below come from US8916498B2, “Safening 6-(trisubstituted phenyl)-4-amino-2-pyridinecarboxylate herbicide injury on direct seeded and transplanted paddy rice” (priority 2008, dated 2014).

Data set [1] has as its system transplanted paddy rice. Description: Safening activity of herbicide mixtures in transplanted paddy rice. Format: in vivo, Oryza sativa. The note with it: partner 280 g/ha alone. How it is done:
(§1) The prepared mud was dispensed in 250 mL aliquots into 480 mL non-perforated plastic pots with a surface area of 91.6 cm^2 leaving a headspace of 3 cm in each pot. Rice seeds were planted in Sun Gro MetroMix 306 planting mixture, which typically has a pH of 6.0 to 6.8 and an organic matter content of about 30 percent, in plastic plug trays. Seedlings at the second or third leaf stage of growth were transplanted into 650 mL of mud contained in 960 mL non-perforated plastic pots with a surface area of 91.6 cm^2 four days prior to herbicide application. The paddy was created by filling the 3 cm headspace of the pots with water. […] Nutrients were added as Osmocote (17:6:10, Nitrogen:Phosphorus:Potassium (N:P:K)+minor nutrients) at 2 grams (g) per cup.
(§2) For technical grade compounds and safeners, a weighed amount, determined by the highest rate to be tested, was placed in an individual 120 mL glass vial and was dissolved in 20 mL of acetone to obtain concentrated stock solutions. […] The concentrated stock solutions obtained were diluted with 20 mL of acetone. Applications were made by injecting an appropriate amount of the stock solution into the aqueous layer of the paddy. […] All treated plant material received the same concentration of acetone and crop oil concentrate.
Forms of compound 1 were applied on an acid equivalent basis.

The test system of another data set is ORYSA (rice). Description: Postemergence herbicidal safening in direct seeded rice, visual injury. The note with it: alone, after 3 weeks. The text has this: A=observed efficacy of active ingredient A at the same concentration as used in the mixture.
B=observed efficacy of active ingredient B at the same concentration as used in the mixture.

A further data set deals with weed test plant species. Description: Herbicidal safening in transplanted paddy rice, visual injury on weeds. Format: in vivo. The note with it: after 3 weeks; for Visual Injury (%) CYPDI Obs: Cyperus difformis; for Visual Injury (%) CYPDI Obs / Visual Injury (%) MOOVA Obs: herbicide 70 g ai/ha alone; for Visual Injury (%) MOOVA Obs: Monochoria vaginalis; for Visual Injury (%) SCPJU Obs: Scirpus juncoides. The protocol: (§3) Evaluation of Herbicidal Safening in Transplanted Paddy Rice
as §1, §2

Another data set deals with SEBEX. Description: Postemergence herbicidal safening in direct seeded rice, visual injury on weed. Format: in vivo. The note with it: alone, after 3 weeks.
For the next data set, the system named is CYPDI. The data set is described as above. Format: in vivo. The note with it: alone, after 3 weeks.
In the next data set the test system is ECHCO. The data set is described as above. Format: in vivo. The note with it: alone, after 3 weeks.
The test system of data set [2] is transplanted paddy rice. Description: Herbicidal safening in transplanted paddy rice, visual injury. Format: in vivo, Oryza sativa. The note with it: after 3 weeks. How it is done: as §3, §1, §2

Each structure is given as a SMILES string. Read-outs that look alike come from different tables or passages of the source.

For `COc1cc(OC)nc(Oc2cccc(Oc3nc(OC)cc(OC)n3)c2C(=O)O)n1` [Bispyribac sodium], in the data set with direct seeded rice (partner 28 g/ha alone), the “ORYSA Visual Injury (%) ‘M202’ Obs” value is recorded as 15% and the “ORYSA Visual Injury (%) ‘Wells’ Obs” value is 20%.
As for `CCOC(=O)C(Cl)Cc1cc(-n2nc(C)n(C(F)F)c2=O)c(F)cc1Cl` (stereo not shown) [Carfentrazone-ethyl], in the data set on direct seeded rice (partner 56 g/ha alone), the “ORYSA Visual Injury (%) ‘M202’ Obs” value is 20% and the “ORYSA Visual Injury (%) ‘Wells’ Obs” value is 25%. In addition, in the data set on direct seeded rice (partner 112 g/ha alone), the “ORYSA Visual Injury (%) ‘M202’ Obs” value was determined as 20% and the “ORYSA Visual Injury (%) ‘Wells’ Obs” value worked out at 35%.
For the molecule `CS(=O)(=O)c1ccc(C(=O)C2C(=O)CCCC2=O)c(Cl)c1` [Sulcotrione], the “Visual Injury (%) ‘M202’ ORYSA Obs” value in the data set on transplanted paddy rice [1] is 10%. In addition, the “ORYSA Visual Injury (%) ‘Wells’ Obs” value in the data set on direct seeded rice (partner 280 g/ha alone) is listed as 99%.
As for `COc1c(Cl)ccc(-c2cc(N)c(Cl)c(C(=O)[O-])n2)c1F.[Na+]` [Compound 1 Na + salt], in the data set on ORYSA (rice) (70 g ai/ha), the “Visual Injury (%) ‘Lemont’ ORYSA Obs” value worked out at 50%. Further, the “Visual Injury (%) CYPDI Obs” value in the data set on weed test plant species worked out at 100%; in the data set with CYPDI (70 g ai/ha) it was 95%. In addition, the “Visual Injury (%) MOOVA Obs” value in the data set on weed test plant species amounted to 100%. Moreover, the “Visual Injury (%) SEBEX Obs” value with SEBEX (70 g ai/ha) is listed as 100%. For the same molecule, the “Visual Injury (%) ECHCO Obs” value in the data set with ECHCO (70 g ai/ha) was determined as 95%.
For the molecule `COc1c(Cl)ccc(-c2cc(N)c(Cl)c(C(=O)[O-])n2)c1Cl.[Na+]` [Compound 2 Na + salt], the “Visual Injury (%) ‘Lemont’ ORYSA Obs” value in the data set with ORYSA (rice) (70 g ai/ha) was determined as 15%. Moreover, the “Visual Injury (%) CYPDI Obs” value in the data set with weed test plant species and with CYPDI (70 g ai/ha) was 100% in each case. Moreover, the “Visual Injury (%) MOOVA Obs” value in the data set on weed test plant species is 100%. For the same molecule, the “Visual Injury (%) SEBEX Obs” value in the data set on SEBEX (70 g ai/ha) was 100%. Besides, the “Visual Injury (%) ECHCO Obs” value in the data set with ECHCO (70 g ai/ha) was 90%.
Turning to `COC(=O)c1c(Cl)nn(C)c1S(=O)(=O)NC(=O)Nc1nc(OC)cc(OC)n1` [Halosulfuron-methyl], in the data set with direct seeded rice (partner 26 g/ha alone), the “ORYSA Visual Injury (%) ‘M202’ Obs” value was 0% and the “ORYSA Visual Injury (%) ‘Wells’ Obs” value amounted to 10%. Besides, the “ORYSA Visual Injury (%) ‘M202’ Obs” value in the data set with direct seeded rice (partner 52 g/ha alone) is 15%.
On to `CCOC(=O)C1=NOC(c2ccccc2)(c2ccccc2)C1` [Isoxadifen-ethyl, ethyl 4,5-dihydro-5,5-diphenyl-3-isoxazole-carboxylate], for which the “Visual Injury (%) ‘Lemont’ ORYSA Obs” value with ORYSA (rice) (17.5 g ai/ha) is listed as 0%; in the data set on ORYSA (rice) (35 g ai/ha), 5%; in the data set on ORYSA (rice) (70 g ai/ha), 10%; in the data set with ORYSA (rice) (140 g ai/ha) it was 5%. The “Visual Injury (%) ‘M202’ ORYSA Obs” value in the data set with transplanted paddy rice [2] (safener 140 g ai/ha alone), in the data set with transplanted paddy rice [2] (safener 280 g ai/ha alone) and with transplanted paddy rice [2] (safener 560 g ai/ha alone) was 0% in each case. Besides, the “‘M202’ ORYSA Visual Injury (%) Obs” value with transplanted paddy rice [2] (safener 1120 g ae/ha alone) amounted to 0%. Further, the “Visual Injury (%) SCPJU Obs” value with weed test plant species (safener 140 g ai/ha alone), in the data set on weed test plant species (safener 280 g ai/ha alone) and in the data set with weed test plant species (safener 560 g ai/ha alone) was 0% in each case. For the same molecule, the “Visual Injury (%) ECHCG Obs” value in the data set with weed test plant species (safener 140 g ai/ha alone), with weed test plant species (safener 280 g ai/ha alone) and in the data set with weed test plant species (safener 560 g ai/ha alone) was 0% each time. Further, the “Visual Injury (%) SEBEX Obs” value in the data set on SEBEX (17.5 g ai/ha), in the data set with SEBEX (35 g ai/ha), in the data set with SEBEX (70 g ai/ha) and with SEBEX (140 g ai/ha) was 0% each time. Further, the “Visual Injury (%) CYPDI Obs” value in the data set with CYPDI (17.5 g ai/ha), with CYPDI (35 g ai/ha), in the data set with CYPDI (70 g ai/ha) and in the data set on CYPDI (140 g ai/ha) was 0% each time. Moreover, the “Visual Injury (%) ECHCO Obs” value in the data set with ECHCO (17.5 g ai/ha), with ECHCO (35 g ai/ha), in the data set with ECHCO (70 g ai/ha) and in the data set on ECHCO (140 g ai/ha) was 0% in each case.
